Measured values published in patent US6737383B1, “Herbicidal oxadiazolidines” (priority 1999, dated 2004).

Key:
sugar beet = test: Test B pre/postemergence sugar beet; type: in vivo, Beta vulgaris
Method in brief: (§1)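 Herbicidal effect was estimated by eye on a ten-point control scale after plants spent twelve to sixteen days in a greenhouse following soil or foliar treatment. Foliar sprays targeted plants at one to four leaves; all doses were formulated in a non-phytotoxic solvent with surfactant.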

corn = test: Test B pre/postemergence corn; type: in vivo, Zea mays
Method in brief: as §1

rice = test: Test B flood test rice; type: in vivo, Oryza sativa
Method in brief: (§2)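 Each value is a visual injury score relative to controls, with 10 meaning complete control and 0 no effect. Evaluation took place twelve to sixteen days after the 2-leaf-stage plants were treated and kept in the greenhouse.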

bamyardgrass = test: Test B flood test barnyardgrass; type: in vivo, Echinochloa crus-galli
Method in brief: as §2

duck salad = test: Test B flood test duck salad; type: in vivo, Heteranthera limosa
Method in brief: as §2

wild oat = test: Test B pre/postemergence wild oat; type: in vivo, Avena fatua
Method in brief: as §1

smallflower flatsedge = test: Test B flood test smallflower flatsedge; type: in vivo, Cyperus difformis
Method in brief: as §2

purple nutsedge = test: Test B pre/postemergence purple nutsedge; type: in vivo, Cyperus rotundus
Method in brief: as §1

giant foxtail = test: Test B pre/postemergence giant foxtail; type: in vivo, Setaria faberii
Method in brief: as §1

surinam grass = test: Test B pre/postemergence surinam grass; type: in vivo, Brachiaria decumbens
Method in brief: as §1

cocklebur = test: Test B pre/postemergence cocklebur; type: in vivo, Xanthium strumarium
Method in brief: as §1

pigweed = test: Test B pre/postemergence pigweed; type: in vivo, Amaranthus retroflexus
Method in brief: as §1

rape = test: Test B pre/postemergence rape; type: in vivo, Brassica napus
Method in brief: as §1

morningglory = test: Test B pre/postemergence morningglory; type: in vivo, Ipomoea hederacea
Method in brief: as §1

wheat = test: Test B pre/postemergence wheat; type: in vivo, Triticum aestivum
Method in brief: as §1

crabgrass = test: Test B pre/postemergence crabgrass; type: in vivo, Digitaria sanguinalis
Method in brief: as §1

[1] = Preemergence, Rate 62 g/ha, scale of 0 to 10 where 0 is no effect and 10 is complete control
[2] = Preemergence, Rate 250 g/ha, scale of 0 to 10 where 0 is no effect and 10 is complete control
[3] = Preemergence, Rate 500 g/ha, scale of 0 to 10 where 0 is no effect and 10 is complete control
[4] = Rate 62 g/ha, Postemergence, scale of 0 to 10 where 0 is no effect and 10 is complete control
[5] = Rate 125 g/ha, Preemergence, scale of 0 to 10 where 0 is no effect and 10 is complete control
[6] = Rate 500 g/ha, Postemergence, scale 0 to 10, 0 no effect, 10 complete control
[7] = Rate 125 g/ha, Postemergence, scale 0 to 10
[8] = Rate 62 g/ha, headed Pre-emergence (flood test species), scale 0 to 10 (0 no effect, 10 complete control)
[9] = Rate 125 g/ha, Pre-emergence, flood test species, scale 0 to 10 where 0 is no effect and 10 is complete control
[10] = Rate 250 g/ha, Pre-emergence, flood-test species, scale 0 to 10, 0 is no effect, 10 is complete control
[11] = Rate 500 g/ha, Pre-emergence, flood test species, scale 0 to 10 (0 no effect, 10 complete control)

CC(C)N(C(=O)n1oc(=O)n([C@H](C)c2ccccc2)c1=O)c1ccc(F)cc1F [Compound 238]
4: Plant response rating (0 to 10; 0 is no effect, 10 is complete control), Rape (rape; Rate 250 g/ha, Postemergence)
6: Plant response rating, Sugarbeets (sugar beet; [3]) | Giant foxtail plant response rating (giant foxtail; [5]) | Rape plant response rating (rape; [6]) | Crabgrass plant response rating (crabgrass; [5])
2: Giant foxtail plant response rating (giant foxtail; [6]) | Morningglory plant response rating (morningglory; [4]) | Plant response rating, Wheat (wheat; [3]) | Crabgrass plant response rating (crabgrass; [1]) | Plant response rating (0 to 10; 0 is no effect, 10 is complete control), Crabgrass (crabgrass; Rate 250 g/ha, Postemergence)
3: Sugarbeets plant response rating (sugar beet; [2]) | Plant response rating, Wild oats (wild oat; [3]) | Plant response rating, Morningglory (morningglory; [3]) | Plant response rating (0 to 10; 0 is no effect, 10 is complete control), Morningglory (morningglory; Rate 250 g/ha, Postemergence)
0: Sugarbeets plant response rating (sugar beet; [1]) | Sugarbeets plant response rating (sugar beet; [4]) | Sugarbeets plant response rating (sugar beet; [5]) | Sugarbeets plant response rating (sugar beet; [6]) | Corn plant response rating (corn; [1]) | Corn plant response rating (corn; [2]) | Plant response rating, Corn (corn; [3]) | Corn plant response rating (corn; [4]) | Corn plant response rating (corn; [7]) | Corn plant response rating (corn; [5]) | Plant response rating (0 to 10; 0 is no effect, 10 is complete control), Corn (corn; Rate 250 g/ha, Postemergence) | Corn plant response rating (corn; [6]) | Rice plant response rating (rice; [8]) | Rice plant response rating (rice; [9]) | Rice plant response rating (rice; [10]) | Rice plant response rating (rice; [11]) | Barnyardgrass plant response rating (bamyardgrass; [8]) | Barnyardgrass plant response rating (bamyardgrass; [9]) | Barnyardgrass plant response rating (bamyardgrass; [10]) | Barnyardgrass plant response rating (bamyardgrass; [11]) | Ducksalad plant response rating (duck salad; [8]) | Ducksalad plant response rating (duck salad; [9]) | Ducksalad plant response rating (duck salad; [10]) | Ducksalad plant response rating (duck salad; [11]) | Wild oats plant response rating (wild oat; [1]) | Wild oats plant response rating (wild oat; [2]) | Wild oats plant response rating (wild oat; [4]) | Wild oats plant response rating (wild oat; [5]) | Wild oats plant response rating (wild oat; [6]) | S. Flatsedge plant response rating (smallflower flatsedge; [8]) | S. Flatsedge plant response rating (smallflower flatsedge; [9]) | S. Flatsedge plant response rating (smallflower flatsedge; [10]) | S. Flatsedge plant response rating (smallflower flatsedge; [11]) | Nutsedge plant response rating (purple nutsedge; [1]) | Nutsedge plant response rating (purple nutsedge; [2]) | Nutsedge plant response rating (purple nutsedge; [4]) | Nutsedge plant response rating (purple nutsedge; [5]) | Plant response rating (0 to 10; 0 is no effect, 10 is complete control), Nutsedge (purple nutsedge; Rate 250 g/ha, Postemergence) | Nutsedge plant response rating (purple nutsedge; [6]) | Giant foxtail plant response rating (giant foxtail; [4]) | Plant response rating (0 to 10; 0 is no effect, 10 is complete control), Giant foxtail (giant foxtail; Rate 250 g/ha, Postemergence) | B. signalgrass plant response rating (surinam grass; [1]) | B. signalgrass plant response rating (surinam grass; Preemergence, Rate 250 g/ha, scale 0 to 10, 0 is no effect, 10 is complete control) | Plant response rating, B. signalgrass (surinam grass; [3]) | B. signalgrass plant response rating (surinam grass; [4]) | B. signalgrass plant response rating (surinam grass; Rate 125 g/ha, Postemergence, scale 0 (no effect) to 10 (complete control)) | B. signalgrass plant response rating (surinam grass; [5]) | Plant response rating (0 to 10; 0 is no effect, 10 is complete control), B. signalgrass (surinam grass; Rate 250 g/ha, Postemergence) | B. signalgrass plant response rating (surinam grass; [6]) | Cocklebur plant response rating (cocklebur; [1]) | Cocklebur plant response rating (cocklebur; [2]) | Cocklebur plant response rating (cocklebur; [4]) | Cocklebur plant response rating (cocklebur; [7]) | Cocklebur plant response rating (cocklebur; [5]) | Plant response rating (0 to 10; 0 is no effect, 10 is complete control), Cocklebur (cocklebur; Rate 250 g/ha, Postemergence) | Cocklebur plant response rating (cocklebur; [6]) | Redroot pigweed plant response rating (pigweed; [1]) | Redroot pigweed plant response rating (pigweed; [2]) | Redroot pigweed plant response rating (pigweed; [4]) | Redroot pigweed plant response rating (pigweed; [5]) | Plant response rating (0 to 10; 0 is no effect, 10 is complete control), Redroot pigweed (pigweed; Rate 250 g/ha, Postemergence) | Rape plant response rating (rape; [1]) | Rape plant response rating (rape; [2]) | Rape plant response rating (rape; [4]) | Rape plant response rating (rape; [5]) | Morningglory plant response rating (morningglory; [1]) | Morningglory plant response rating (morningglory; [2]) | Morningglory plant response rating (morningglory; [5]) | Wheat plant response rating (wheat; [1]) | Wheat plant response rating (wheat; [2]) | Wheat plant response rating (wheat; [4]) | Wheat plant response rating (wheat; [5]) | Wheat plant response rating (wheat; [6]) | Crabgrass plant response rating (crabgrass; [4])
5: Giant foxtail plant response rating (giant foxtail; [1]) | Redroot pigweed plant response rating (pigweed; [6]) | Morningglory plant response rating (morningglory; [6]) | Crabgrass plant response rating (crabgrass; [6])
10: Giant foxtail plant response rating (giant foxtail; [2]) | Plant response rating, Giant foxtail (giant foxtail; [3]) | Plant response rating, Rape (rape; [3]) | Crabgrass plant response rating (crabgrass; [2]) | Plant response rating, Crabgrass (crabgrass; [3])
9: Plant response rating, Redroot pigweed (pigweed; [3])
